Assay results published in ChEMBL document CHEMBL4376803, “Recent Advances in the Exploration of Therapeutic Analogues of Gramicidin S, an Old but Still Potent Antimicrobial Peptide” (J Med Chem, 2019).
Square brackets hold non-standard residues; d marks the D form. Peptide text beside a SMILES is read from it. Orn = NCCC[C@H](N)C(=O)O

Key:
[1] = Therapeutic index, ratio of HD100 for hemolytic activity in human erythrocytes to MIC against methicillin-resistant Staphylococcus aureus ATCC 4330; type: toxicity, cell-based; conditions: read-out: TI
[2] = Therapeutic index, ratio of HD100 for hemolytic activity in human RBC to MIC against Escherichia coli UB1005; type: toxicity; conditions: human red blood cells, read-out: TI
[3] = Therapeutic index, ratio of HD100 for hemolytic activity in human RBC to MIC against Enterococcus faecalis ATCC 29212; type: toxicity; conditions: human red blood cells, read-out: TI
[4] = Therapeutic index, ratio of HD100 for hemolytic activity in human erythrocytes to MIC against Pseudomonas aeruginosa ATCC 27853; type: toxicity, cell-based; conditions: read-out: TI
[5] = Haemolytic activity in human erythrocytes at 100 ug/ml after 30 mins relative to control; type: ADME, cell-based, Erythrocyte; conditions: read-out: Activity
[6] = Therapeutic index, ratio of HC90 for hemolytic activity in human erythrocytes to MIC against Escherichia coli ATCC 25922; type: toxicity, cell-based; conditions: read-out: TI
Erythrocyte [7] = test: Haemolytic activity in human RBC after 30 mins by spectrophotometric analysis; type: ADME, cell-based; conditions: 0.5 h
[8] = Therapeutic index, ratio of HC90 for hemolytic activity in human erythrocytes to MIC against Staphylococcus aureus ATCC 25923; type: toxicity, cell-based; conditions: read-out: TI
[9] = Haemolytic activity in human RBC incubated for 1 hr; type: ADME, cell-based, Erythrocyte; conditions: human red blood cells
[10] = Haemolytic activity in human RBC after 4 hrs; type: ADME, cell-based, Erythrocyte; conditions: human red blood cells
[11] = Therapeutic index, ratio of HD100 for hemolytic activity in human RBC to MIC against Candida albicans; type: toxicity; conditions: human red blood cells, read-out: TI
Lipopolysaccharide (LPS) = test: Displacement of Dansyl-polymyxin from Pseudomonas aeruginosa LPS by fluorescence method; conditions: read-out: I50
[12] = Therapeutic index, ratio of HD100 for hemolytic activity in human RBC to MIC against Pseudomonas aeruginosa H187; type: toxicity; conditions: human red blood cells, read-out: TI
[13] = Hemolytic activity against RBC (unknown origin) at 100 ul after 4 hrs; type: ADME, cell-based, Erythrocyte; conditions: red blood cells (unknown origin)
[14] = (§1) Haemolytic activity in human erythrocytes; type: ADME, cell-based, Erythrocyte; conditions: human erythrocytes
Erythrocyte [15] = test: as §1; type: ADME, cell-based; conditions: erythrocyte
Erythrocyte [16] = test: Haemolytic activity in human RBC after 4 hrs by visual method; type: ADME, cell-based
[17] = Therapeutic index, ratio of HD100 for hemolytic activity in human RBC to MIC against Staphylococcus aureus K147; type: toxicity; conditions: human red blood cells, read-out: TI
[18] = Therapeutic index, ratio of HD100 for hemolytic activity in human erythrocytes to MIC against Enterococcus faecalis ATCC 29212; type: toxicity, cell-based; conditions: read-out: TI
[19] = Therapeutic index, ratio of HD100 for hemolytic activity in human erythrocytes to MIC against Staphylococcus aureus ATCC 29213; type: toxicity, cell-based; conditions: read-out: TI
[20] = Haemolytic activity in human erythrocytes incubated for 30 mins; type: ADME, cell-based, Erythrocyte
[21] = Therapeutic index, ratio of HD100 for hemolytic activity in human erythrocytes to MIC against Escherichia coli ATCC 25922; type: toxicity, cell-based; conditions: read-out: TI
[22] = Hemolytic activity in sheep erythrocytes; type: ADME, cell-based, Ovis aries, Erythrocyte
[23] = Hemolytic activity in sheep RBC incubated for 30 mins; type: ADME, cell-based, Ovis aries, Erythrocyte; conditions: sheep red blood cells
[24] = Therapeutic index, ratio of HC90 for hemolytic activity in human erythrocytes to MIC against Enterococcus faecalis ATCC 29212; type: toxicity, cell-based; conditions: read-out: TI
[25] = Therapeutic index, ratio of HC90 for hemolytic activity in human erythrocytes to MIC against Staphylococcus epidermidis ATCC 12228; type: toxicity, cell-based; conditions: read-out: TI

CC(C)C[C@@H]1NC(=O)[C@H](CCCN)NC(=O)[C@H](C(C)C)NC(=O)[C@@H]2CCCN2C(=O)[C@@H](Cc2ccccc2)NC(=O)[C@H](CC(C)C)NC(=O)[C@H](CCCN)NC(=O)[C@H](C(C)C)NC(=O)[C@@H]2CCCN2C(=O)[C@@H](Cc2ccccc2)NC1=O (cyclo(L[dF]PV[Orn]L[dF]PV[Orn]))
selectivity ratio [1]: 7.8
selectivity ratio [2]: 2
selectivity ratio [3]: 4.5
selectivity ratio [4]: 1
hemolysis at 0.5 h, 100 ug/ml [5]: 80%
selectivity ratio [6]: 0.38
HC90 (Erythrocyte [7]): 12 µg/mL
selectivity ratio [8]: 3
HC50 at 1 h [9]: 14.3 µg/mL
HC50 at 4 h [10]: 17.5 µg/mL
selectivity ratio [11]: 4
IC50 (Lipopolysaccharide (LPS)): 295 µM
selectivity ratio [12]: 0.6
HC50 at 4 h [13]: 5 to 31.2 µg/mL
HC50 [14]: 12 µg/mL
Activity (Erythrocyte [15]): 62.5 µg/mL
HD100 (Erythrocyte [16]): 12.5 µg/mL
selectivity ratio [17]: 8.3
selectivity ratio [18]: 7.8
selectivity ratio [19]: 15.6
HC50 at 0.5 h [20]: 5 to 10 µg/mL
selectivity ratio [21]: 2
HC50 [22]: 25 to 35 µg/mL
HC50 at 0.5 h [23]: 25 to 35 µg/mL
selectivity ratio [24]: 1.5
selectivity ratio [25]: 6
